pIC50: −log10 of the molar value.

Assay [1] concerns EpH4-VEGF. The experiment in a line: FLK-1/Xenograft Model, subcutaneous tumor growth. The assay is classed as in vivo, mice. As for the experimental part: Assay 2: FLK-1/Xenograft Model.
The ability of the compounds of the present invention to inhibit ovarian, melanoma, prostate, lung and mammary tumor cell lines established as SC xenografts was examined. These studies were conducted using doses ranging from 1 to 75 mg/kg/day.
Materials And Methods. The tumor cells were implanted subcutaneously into the indicated strains of mice. Treatment was initiated on day 1 post implantation unless otherwise indicated (e.g. treatment of the SCID mouse related to the A375 melanoma cell line began on Day 9). Eight (8) to sixteen (16) mice comprised each test group.
Animals. Female athymic mice (BALB/c, nu/nu), BALB/c mice, Wistar rats and Fisher 344 rats were obtained from Simonsen Laboratories (Gilroy, Calif.). Female A/I mice were obtained from Jackson Laboratory (Bar Harbor, Me.). DA rats were obtained from B&K Universal, Inc. (Fremont, Calif.). Athymic R/Nu rats, DBA/2N mice, and BALB/c mice were obtained from Harlan Sprague Dawley (Indianapolis, Ind.). Female C57BL/6 mice were obtained from Taconic (Germantown, N.Y.). […]
Subcutaneous Xenograft Model. […] Tumor growth was measured over 3 to 6 weeks using venier calipers tumor volumes were calculated as a product of length×width×height unless otherwise indicated. P values were calculated using the Students' t-test. […]

Assay [2] relates to HUV-EC-C cells. The assay can be described thus: HUV-EC-C assay, a-FGF (ECGF)-induced [3H]thymidine incorporation. Type of assay: cell-based, human. Particulars: a-FGF-stimulated HUV-EC cells, read-out: Mitogenesis in Endothelial Cells, [3H] Thymidine Incorporation, HUV-EC Assay, a-FGF.
Method: (§1) Repeat the wash two more times with D-PBS, resuspend the cells in about 1 ml assay medium/15 cm^2 of tissue culture flask.
(§2) Add cells to 96-well flat-bottom plates at 100 μl/well or 0.8-1.0×10^4 cells/well; incubate ˜24 h at 37° C., 5% CO2.
(§3) Use the same assay medium as mentioned in day 0, step 2 above. Titrations are made by adding 90 μl/well of drug at 200 μM (4× the final well concentration) to the top well of a particular plate column. Since the stock drug concentration-is usually 20 mM in DMSO, the 200 μM drug concentration contains 2% DMSO.
(§4) Therefore, diluent made up to 2% DMSO in assay medium (F12K+0.5% fetal bovine serum) is used as diluent for the drug titrations in order to dilute the drug but keep the DMSO concentration constant. Add this diluent to the remaining wells in the column at 60 μl/well. Take 60 μl from the 120 μl of 200 μM drug dilution in the top well of the column and mix with the 60 μl in the second well of the column. Take 60 μl from this well and mix with the 60 μl in the third well of the column, and so on until two-fold titrations-are completed. When the next-to-the-last well is mixed, take 60 μl of the 120 μl in this well and discard it. Leave the last well with 60 μl of DMSO/media diluent as a non-drug-containing control. […] 9 columns of titrated drug, enough for triplicate wells each for 1) VEGF (obtained from Pepro Tech Inc., catalogue no. 100-200, 2) endothelial cell growth factor (ECGF) (also known as acidic fibroblast growth factor, or aFGF) (obtained from Boehringer Mannheim Biochemica, catalogue no. […] ECGF comes as a preparation with sodium heparin.
(§5) Transfer 50 μl/well of the drug dilutions to the 96-well assay plates containing the 0.8-1.0×10^4 cells/100 μl/well of the HUV-EC-C cells from day 0 and incubate ˜2 h at 37° C., 5% CO2.
(§6) In triplicate, add 50 μl/well of 80 μg/ml VEGF, 20 ng/ml ECGF, or media control to each drug condition. As with the drugs, the growth factor concentrations are 4× the desired final concentration. Use the assay media from day 0 step 2 to make the concentrations of growth factors.
Freeze plates overnight at −20° C.
In assay [3] the target is T1, HER2 Kinase (Homo sapiens, UniProt P04626).
T1 construct: fused on or other part: Candidate partner: EGFR extracellular domain (P00533) in place of HER2's own ectodomain if Assay 1 was used; none if Assay 2 (BT-474) was used
The experiment in a line: HER-2 ELISA (whole-cell HER2 kinase activity). The assay is classed as cell-based. Particulars: whole cells. Background: An ELISA detects its analyte on a solid surface through an enzyme-linked reagent.
Method: Assay 1: EGF Receptor-HER2 Chimeric Receptor Assay In Whole Cells. HER2 kinase activity in is whole EGFR-NIH3T3 cells was measured as described below:
Materials and Reagents. The following materials and reagents were used to conduct the assay: • a. […] Anti-phosphotyrosine antibody (anti-Ptyr) (polyclonal) (see, Fendley, et al., supra). • d. Detection antibody: Goat anti-rabbit lgG horse radish peroxidase conjugate, TAGO, Inc., Burlingame, Calif. • e. TBST buffer:
Stock reagents of: • EDTA 100 mM pH 7.0 • Na3VO4 0.5 M • Na4(P2O7) 0.2 M
(§7) Procedure. The following protocol was used:
Coated plates are good for up to 10 days when stored at 4° C.
On day of use, remove coating buffer and replace with 100 μl blocking buffer (5% Carnation Instant Non-Fat Dry Milk in PBS). Incubate the plate, shaking, at room temperature (about 23° C. to 25° C.) for 30 minutes. Just prior to use, remove blocking buffer and wash plate 4 times with TBST buffer.
An NIH3T3 cell line overexpressing a chimeric receptor containing the EGFR extracellular domain and extracellular HER2 kinase domain can be used for this assay.
Choose dishes having 80-90% confluence for the experiment. Trypsinize cells and stop reaction by adding 10% fetal bovine serum. Suspend cells in DMEM medium (10% CS DMEM medium) and centrifuge once at 1500 rpm, at room temperature for 5 minutes.
Resuspend cells in seeding medium (DMEM, 0.5% bovine serum), and count the cells using trypan blue. Viability above 90% is acceptable. Seed cells in DMEM medium (0.5% bovine serum) at a density of 10,000 cells per well, 100 μl per well, in a 96 well microtiter plate. Incubate seeded cells in 5% CO2 at 37° C. for about 40 hours.
Check seeded cells for contamination using an inverted microscope. Dilute drug stock (10 mg/ml in DMSO) 1:10 in DMEM medium, then transfer 5 l to a TBST well for a final drug dilution of 1:200 and a final DMSO concentration of 1%. Control wells receive DMSO alone. Incubate in 5% CO2 at 37° C. for two hours.
Prepare EGF ligand: dilute stock EGF in DMEM so that upon transfer of 10 μl dilute EGF (1:12 dilution), 100 nM final concentration is attained.
Prepare fresh HNTG* sufficient for 100 μl per well; and place on ice.
After 120 minutes incubation with drug, add prepared SGF ligand to cells, 10 μl per well, to a final concentration of 100 nM. Control wells receive DMEM alone. Incubate, shaking, at room temperature, for 5 minutes.
Remove drug, EGF, and DMEM. Wash cells twice with PBS. Transfer HNTG* to cells, 100 μl per well. Place on ice for 5 minutes. Meanwhile, remove blocking buffer from other ELISA plate and wash with TBST as described above. […]
The maximal phosphotyrosine signal is determined by subtracting the value of the negative controls from the positive controls.

The target of assay [4] is T2, FLK-1 receptor (Mus musculus, UniProt P35918).
T2 construct: expressed in transfected cells; host or cells: NIH3T3 C7 #3
The experiment in a line: FLK-1 ELISA in FLK-1/NIH3T3 cells. Particulars: ELISA, FLK-1/NIH3T3 cells, VEGF stimulated. The assay is classed as cell-based.

Assay [5] has as its system 3T3/PDGFR + PDGF (T) cells. The experiment in a line: 3T3/PDGF-βR/PDGF-BB(T) Cell Growth SRB Assay. Type of assay: cell-based. Particulars: NIH 3T3 cells expressing PDGF-βR and PDGF-ββ, tumor-derived; read-out: Cell Growth Assay, SRB Readout, 3T3/PDGFR + PDGF (T) IC50.
Method: Assay 3: 3T3/PDGF-βR/PDGF-BB(T) Cell Growth SRB Assay
This part of assay is carried out in a laminar flow hood.
Trypsinize cells as usual. Transfer 200 μl of cell suspension to 10 ml of isotone. Count cells on the Coulter Counter.
Dilute cells in growth medium to 60,000 cells/ml. Transfer 100 μl of cells to each well in a 96-well flat bottom plate to give 6000 cells/well.
Gently shake plates to allow for uniform attachment of the cells to the plate.
Incubate the plates at 37° C. in a 10% CO2 incubator.
Day 1: Addition of Compound: same as for Assay 1.
Day 5: Development of Assay: same as for Assay 1.
The test system of assay [6] is HUV-EC-C cells. The experiment in a line: HUV-EC-C assay, VEGF-induced [3H]thymidine incorporation. Type of assay: cell-based, human. The conditions noted are these: VEGF-stimulated HUV-EC cells, read-out: Mitogenesis in Endothelial Cells, [3H] Thymidine Incorporation, HUV-EC Assay, VEGF. (In general: Uptake of a labelled nucleoside into DNA is a usual measure of proliferation.)
Method: as §1, §2, §3, §4, §5, §6
Freeze plates overnight at −20° C.

Assay [7] deals with PDGFR. The assay can be described thus: PDGF-R ELISA (receptor phosphotyrosine in whole cells). Particulars: U1242 cells. The assay is classed as cell-based.
Method: All cell culture media, glutamine, and fetal bovine serum were purchased from Gibco Life Technologies (Grand Island, N.Y.) unless otherwise specified. […] All cell lines were routinely subcultured twice a week and were negative for mycoplasma as determined by the Mycotect method (Gibco).
For ELISA assays, cells (U1242, obtained from Joseph Schlessinger, NYU) were grown to 80-90% confluency in growth medium (MEM with 10% FBS, NEAA, 1 mM NaPyr and 2 mM GLN) and seeded in 96-well tissue culture plates in 0.5% serum at 25,000 to 30,000 cells per well. After overnight incubation in 0.5% serum-containing medium, cells were changed to serum-free medium and treated with test compound for 2 hr in a 5% CO2, 37° C. incubator. […] Lysates were incubated with shaking for 1 hour at room temperature. The plates were washed with TBST four times and then incubated with polyclonal anti-phosphotyrosine antibody at room temperature for 30 minutes. Excess anti-phosphotyrosine antibody was removed by rinsing the plate with TBST four times. Goat anti-rabbit IgG antibody was added to the ELISA plate for 30 min at room temperature followed by rinsing with TBST four more times. […] Absorbance at 410 nm with a reference wavelength of 630 nm was recorded about 15 to 30 min after ABTS addition.
For assay [8], the target named is T3, EGF Receptor (Homo sapiens, UniProt P00533).
T3 construct: expressed in transfected cells; host or cells: NIH 3T3/C7 (3T3/EGFRc7)
The experiment in a line: EGF Receptor ELISA (EGFR-NIH3T3 assay). The assay is classed as cell-based. The conditions noted are these: EGFR-NIH3T3 whole cells.
Method: EGF Receptor kinase activity (EGFR-NIH3T3 assay) in whole cells was measured as described below:
Materials and Reagents. The following materials and reagents were used • a. […] Anti-phosphotyosine antibody (anti-Ptyr) (polyclonal). • d. Detection antibody: Goat anti-rabbit lgG horse radish peroxidase conjugate, TAGO, Inc., Burlingame, Calif. • e. TBST buffer:
• Keep solution in dark at 4° C. until used. • h. Stock reagents of: • EDTA 100 mM pH 7.0 • Na3VO4 0.5 M • Na4(P2O7) 0.2 M
as §7
1. […] Coated plates are good for up to 10 days when stored at 4° C.
2. On day of use, remove coating buffer and replace with blocking buffer (5% Carnation Instant NonFat Dry Milk in PBS). Incubate the plate, shaking, at room temperature (about 23° C. to 25° C.) for 30 minutes. Just prior to use, remove blocking buffer and wash plate 4 times with TBST buffer.
2. Choose dishes having 80-90% confluence for the experiment. Trypsinize cells and stop reaction by adding. 10% CS DMEM medium. Suspend cells in DMEM medium (10% CS DMEM medium) and centrifuge once at 1000 rpm, and once at room temperature for 5 minutes.
3. Resuspend cells in seeding medium (DMEM, 0.5% bovine serum), and count the cells using trypan blue. Viability above 90% is acceptable. Seed cells in DMEM medium (0.5% bovine serum) at a density of 10,000 cells per well, 100 μl per well, in a 96 well microtiter plate. Incubate seeded cells in 5% CO2 at 37° C. for about 40 hours.
1. Check seeded cells for contamination using an inverted microscope. Dilute drug stock (10 mg/ml in DMSO) 1:10 in DMEM medium, then transfer 5 μl to a test well for a final drug dilution of 1:200 and a final DMSO concentration of 1%. Control wells receive DMSO alone. Incubate in 5% CO2 at 37° C. for one hour.
5. […] Control wells receive. DMEM alone. […]
The maximal phosphotyrosine signal is determined by subtracting the value of the negative controls from the positive controls. The percent inhibition of phosphotyrosine content for extract-containing wells is then calculated, after subtraction of the negative controls.

Assay [9] has as its target T4, EGFR (Homo sapiens, UniProt P00533).
T4 construct: expressed in transfected cells; host or cells: NIH 3T3/C7 (3T3/EGFRc7)
The experiment in a line: EGF-Induced BrdU Incorporation Assay in 3T3/EGFR cells. The assay is classed as cell-based. Particulars: EGF ligand; read-out: Mitogenesis in 3T3/EGFR Cells, BrdU Incorporation, EGFR EGF Ligand IC50.
Method: Assay 2: EGF-Induced BrdU Incorporation Assay
Protocol • (1) 3T3 engineered cell line: 3T3/EGFRc7 • (2) Cells are seeded at 8000 cells/well in 10% CS, 2 mM Gln in DMEM, in a 96 well plate. […] The negative control wells receive serum free DMEM with 0.1% BSA only; the positive control cells receive the ligand (EGF) but no test compound. […] FixDenat solution is added (50 μl/well) and the plates are incubated at room temperature for 45 minutes on a plate shaker. • (7) The FixDenat solution is thoroughly removed by decanting and tapping the inverted plate on a paper towel. Milk is added (5% dehydrated milk in PBS, 200 μl/well) as a blocking solution and the plate is incubated for 30 minutes at room temperature on a plate shaker. • (8) The blocking solution is removed by decanting and the wells are washed once with PBS. Anti-BrdU-POD solution (1:100 dilution in PBS, 1% BSA) is added (100 μl/well) and the plate is incubated for 90 minutes at room temperature on a plate shaker. • (9) The antibody conjugate is thoroughly removed by decanting and rinsing the wells 5 times with PBS, and the plate is dried by inverting and tapping on a paper towel. • (10) TMB substrate solution is added (100 μl/well) and incubated for 20 minutes at room temperature on a plate shaker until color development is sufficient for photometric detection. • (11) The absorbance of the samples are measured at 410 nm (in “dual wavelength” mode with a filter reading at 490 nm, as a reference wavelength) on a Dynatech ELISA plate reader.

T3 sequence (P00533 25-1210): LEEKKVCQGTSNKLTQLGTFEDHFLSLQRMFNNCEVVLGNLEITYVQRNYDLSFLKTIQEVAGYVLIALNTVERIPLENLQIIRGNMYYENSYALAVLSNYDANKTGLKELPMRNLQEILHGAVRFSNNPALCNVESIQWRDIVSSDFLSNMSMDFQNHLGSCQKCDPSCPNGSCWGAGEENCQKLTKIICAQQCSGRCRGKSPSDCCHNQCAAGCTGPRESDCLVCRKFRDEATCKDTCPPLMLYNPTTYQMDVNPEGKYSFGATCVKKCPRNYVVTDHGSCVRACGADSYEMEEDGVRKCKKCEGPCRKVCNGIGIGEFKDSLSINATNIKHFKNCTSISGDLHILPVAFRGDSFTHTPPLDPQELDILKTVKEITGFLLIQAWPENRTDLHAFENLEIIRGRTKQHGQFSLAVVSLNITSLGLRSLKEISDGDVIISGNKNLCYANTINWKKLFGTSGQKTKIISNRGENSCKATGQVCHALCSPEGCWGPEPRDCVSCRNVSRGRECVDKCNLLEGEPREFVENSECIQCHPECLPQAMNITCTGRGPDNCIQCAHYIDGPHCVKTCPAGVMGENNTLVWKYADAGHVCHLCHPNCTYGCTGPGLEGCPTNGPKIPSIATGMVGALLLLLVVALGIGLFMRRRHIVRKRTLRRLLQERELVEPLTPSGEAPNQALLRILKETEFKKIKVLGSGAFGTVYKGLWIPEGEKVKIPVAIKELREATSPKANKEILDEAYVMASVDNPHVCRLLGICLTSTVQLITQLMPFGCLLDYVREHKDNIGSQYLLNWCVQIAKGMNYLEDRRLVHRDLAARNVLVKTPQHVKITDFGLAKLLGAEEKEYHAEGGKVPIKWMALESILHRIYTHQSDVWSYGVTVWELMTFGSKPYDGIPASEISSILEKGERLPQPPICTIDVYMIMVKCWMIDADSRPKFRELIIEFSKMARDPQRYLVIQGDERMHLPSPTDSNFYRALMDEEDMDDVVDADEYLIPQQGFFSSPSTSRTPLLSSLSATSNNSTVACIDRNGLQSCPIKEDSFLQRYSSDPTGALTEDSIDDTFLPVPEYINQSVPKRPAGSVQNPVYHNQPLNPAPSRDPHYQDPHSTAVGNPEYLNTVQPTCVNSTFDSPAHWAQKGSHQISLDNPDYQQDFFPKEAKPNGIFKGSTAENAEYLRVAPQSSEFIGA
T1 sequence (P04626 720-987 limits assumed): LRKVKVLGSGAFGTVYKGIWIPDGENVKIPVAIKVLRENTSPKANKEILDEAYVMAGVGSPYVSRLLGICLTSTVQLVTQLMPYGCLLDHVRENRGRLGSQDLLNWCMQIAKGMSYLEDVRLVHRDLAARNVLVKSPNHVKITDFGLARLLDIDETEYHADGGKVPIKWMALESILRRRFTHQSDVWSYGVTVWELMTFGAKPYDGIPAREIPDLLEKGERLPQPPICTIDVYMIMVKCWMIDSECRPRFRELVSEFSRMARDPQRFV
T2 sequence (P35918 20-1345): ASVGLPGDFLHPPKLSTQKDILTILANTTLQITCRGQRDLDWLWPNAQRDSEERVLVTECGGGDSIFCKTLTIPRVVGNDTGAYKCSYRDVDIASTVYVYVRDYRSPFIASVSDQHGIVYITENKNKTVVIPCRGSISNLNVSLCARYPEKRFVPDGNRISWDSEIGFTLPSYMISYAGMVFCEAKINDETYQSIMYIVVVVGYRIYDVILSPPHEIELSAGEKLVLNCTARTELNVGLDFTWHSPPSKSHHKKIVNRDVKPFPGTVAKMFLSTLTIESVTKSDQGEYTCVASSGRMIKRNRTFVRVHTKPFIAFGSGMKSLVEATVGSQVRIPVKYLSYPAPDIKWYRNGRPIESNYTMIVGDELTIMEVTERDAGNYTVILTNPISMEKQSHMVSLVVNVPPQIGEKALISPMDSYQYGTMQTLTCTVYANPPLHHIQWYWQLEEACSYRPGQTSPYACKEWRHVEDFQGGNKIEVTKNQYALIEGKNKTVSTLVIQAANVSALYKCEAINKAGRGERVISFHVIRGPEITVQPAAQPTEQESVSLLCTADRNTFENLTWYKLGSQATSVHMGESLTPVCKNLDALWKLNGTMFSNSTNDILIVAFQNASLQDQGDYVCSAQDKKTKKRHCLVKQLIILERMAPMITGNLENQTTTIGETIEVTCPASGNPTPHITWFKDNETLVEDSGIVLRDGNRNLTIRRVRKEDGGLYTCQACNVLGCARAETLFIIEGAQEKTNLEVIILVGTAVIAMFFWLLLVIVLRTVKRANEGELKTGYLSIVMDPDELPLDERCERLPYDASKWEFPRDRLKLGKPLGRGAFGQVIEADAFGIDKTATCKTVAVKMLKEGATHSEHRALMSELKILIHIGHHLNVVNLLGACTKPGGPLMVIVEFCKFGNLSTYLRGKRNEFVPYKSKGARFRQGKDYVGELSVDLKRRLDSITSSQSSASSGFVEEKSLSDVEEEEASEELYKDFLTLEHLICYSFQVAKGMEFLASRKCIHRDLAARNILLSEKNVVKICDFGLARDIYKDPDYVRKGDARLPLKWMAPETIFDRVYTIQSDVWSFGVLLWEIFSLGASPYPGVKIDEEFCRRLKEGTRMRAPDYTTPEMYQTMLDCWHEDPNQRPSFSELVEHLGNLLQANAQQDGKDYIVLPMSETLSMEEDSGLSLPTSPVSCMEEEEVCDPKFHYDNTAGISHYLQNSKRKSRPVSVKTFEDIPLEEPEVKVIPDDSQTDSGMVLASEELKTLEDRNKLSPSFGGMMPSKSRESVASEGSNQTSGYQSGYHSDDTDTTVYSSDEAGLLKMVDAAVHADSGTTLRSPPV
T4 sequence (P00533 25-1210): as the sequence (P00533 25-1210) above

In the case of `O=C1Nc2ccccc2C1=Cc1ccc(Br)cc1` [SU4942, 3-(4-Bromobenzylidenyl)-2-indolinone], the “EpH4-VEGF % inhibition @ mg/kg” value in assay [1] (@ 25 mg/kg) is 47% @ 25; in [1] (@ 50 mg/kg), 46% @ 50. Further, the pIC50 in assay [2] was 5.34.

Take `CN1C(=O)C(=Cc2ccc(Br)cc2)c2ccccc21` [SU4956, 3-(4-Bromobenzylidenyl)-1-methyl-2-indolinone]: in assay [3], the pIC50 was 4.65.

Take `CN1C(=O)C(=Cc2ccc(N3CCOCC3)cc2)c2ccccc21` [SU4982, 1-Methyl-3-[4-(morpholin-4-yl)benzylidenyl]-2-indolinone]: the pIC50 in assay [3] was 4.40; in assay [4], 4.67.

Take `O=CN1CCN(c2ccc(C=C3C(=O)Nc4ccccc43)cc2)CC1` [SU4984, 3-[4-(4-Formylpiperazin-1-yl)benzylidenyl]-2-indolinone]: the pIC50 in [5] is 4.65; in [2] it was 4.59; in [6], 6.10; in [3] it was 4.04; in assay [4], 5.80; in [7], 5.24.

Consider `COc1ccccc1C=C1C(=O)Nc2ccccc21` [SU5214, 3-(2-Methoxybenzylidenyl)-2-indolinone], for which the pIC50 in [4] is 4.83; in [8], 4.44.

As to `CN(C)c1c(C=C2C(=O)Nc3ccccc32)cc(C=C2C(=O)Nc3ccccc32)c(N(C)C)c1C#N` [SU5218, 2,6-Di-(dimethylamino)-3,5-di-[(indolin-2-one-3-ylidenyl)methyl]-phenylcyanide], the pIC50 is 5.57 in assay [2] (Homo sapiens, HUVEC); 5.62 in assay [6] (Homo sapiens, HUVEC); 5.19 in assay [4].

With `O=C1Nc2ccccc2C1=Cc1ccc(N2CCCCC2)cc1` [SU5450, 3-[4-(Piperidin-1-yl)benzylidenyl]-2-indolinone], the pIC50 is 4.03 in assay [3] and 5.35 in assay [4].

As to `CCc1ccc(C=C2C(=O)Nc3ccccc32)s1` [SU5451, 3-[(2-Ethylthien-5-yl)methylene]-2-indolinone], the pIC50 in [4] is 5.47; in [8], 4.36.

Take `O=C1Nc2ccccc2C1=Cc1cnc[nH]1` [SU5473, 3-[(Imidazol-4-yl)methylene]-2-indolinone]: the pIC50 was 4.27 in assay [9]; 4.85 in assay [2] (Homo sapiens, HUVEC); 5.92 in [6] (Homo sapiens, HUVEC); 5.82 in [4].

As to `COc1ccc(C=C2C(=O)Nc3ccccc32)c(Cl)c1` [SU5480, 3-[2-Chloro-4-methoxybenzylidenyl]-2-indolinone], the pIC50 in [4] is 5.28; in [8] it was 4.40.

The values above are taken from US6906093B2, “Indolinone combinatorial libraries and related products and methods for the treatment of disease” (Sugen, Inc., priority 1995, dated 2005).
